# Results as given in PMC6471177 (Pharmaceutics, 2019).
# How the values were obtained:
# [1] = MTT cell viability assay in Caco-2 cells; type: cell-based; conditions: human; Caco-2 cells, 0.001 to 100 µM, 24 h, MTT
# Experimental: (§1) Caco-2 cells were obtained from the Korean Cell Line Bank (Seoul, Korea). The cells were maintained in Dulbecco’s modified Eagle’s medium (DMEM) supplemented with 10% fetal bovine serum, 1% non-essential amino acids, and 100 U/mL penicillin and gentamicin at 37 °C in a humidified 5% CO2 atmosphere.
# (§2) The effect of LC478 on cell viability was assessed by an MTT assay. LC478 was dissolved in diluted in 100% dimethyl sulfoxide (DMSO) and diluted with cell culture media. Caco-2 cells were seeded in 96-well plates at 1 × 10^5 cells/mL. A 100 μL of LC478 in cell culture media was treated on the plates to achieve final concentration of LC478 in the ranges of 0.001 to 100 μM, which was incubated for 24 h. After adding 10 μL/well of MTT ([…]) and incubating them for 24 h, the supernatants of the cultures were removed and replaced with 100 μL of DMSO. The cell viability rate (%) was calculated as the absorbance of treated cells divided by that of control cells. The viability of the control cells was defined as 100%.
# [2] = system: Caco-2 cells; assay: MTT cell viability assay in Caco-2 cells; type: cell-based; conditions: even at 100 µM, 24 h incubation
# Experimental: as §1, §2
# [3] = biological target: T1, P-gp (Homo sapiens, UniProt P08183); assay: Intracellular accumulation of docetaxel in Caco-2 cells (P-gp inhibition); type: cell-based
# T1 construct: They were allowed to grow to confluence for 5 days to obtain higher expressions of P-gp; endogenous in cells; host or cells: Caco-2
# T1 sequence (P08183 whole entry): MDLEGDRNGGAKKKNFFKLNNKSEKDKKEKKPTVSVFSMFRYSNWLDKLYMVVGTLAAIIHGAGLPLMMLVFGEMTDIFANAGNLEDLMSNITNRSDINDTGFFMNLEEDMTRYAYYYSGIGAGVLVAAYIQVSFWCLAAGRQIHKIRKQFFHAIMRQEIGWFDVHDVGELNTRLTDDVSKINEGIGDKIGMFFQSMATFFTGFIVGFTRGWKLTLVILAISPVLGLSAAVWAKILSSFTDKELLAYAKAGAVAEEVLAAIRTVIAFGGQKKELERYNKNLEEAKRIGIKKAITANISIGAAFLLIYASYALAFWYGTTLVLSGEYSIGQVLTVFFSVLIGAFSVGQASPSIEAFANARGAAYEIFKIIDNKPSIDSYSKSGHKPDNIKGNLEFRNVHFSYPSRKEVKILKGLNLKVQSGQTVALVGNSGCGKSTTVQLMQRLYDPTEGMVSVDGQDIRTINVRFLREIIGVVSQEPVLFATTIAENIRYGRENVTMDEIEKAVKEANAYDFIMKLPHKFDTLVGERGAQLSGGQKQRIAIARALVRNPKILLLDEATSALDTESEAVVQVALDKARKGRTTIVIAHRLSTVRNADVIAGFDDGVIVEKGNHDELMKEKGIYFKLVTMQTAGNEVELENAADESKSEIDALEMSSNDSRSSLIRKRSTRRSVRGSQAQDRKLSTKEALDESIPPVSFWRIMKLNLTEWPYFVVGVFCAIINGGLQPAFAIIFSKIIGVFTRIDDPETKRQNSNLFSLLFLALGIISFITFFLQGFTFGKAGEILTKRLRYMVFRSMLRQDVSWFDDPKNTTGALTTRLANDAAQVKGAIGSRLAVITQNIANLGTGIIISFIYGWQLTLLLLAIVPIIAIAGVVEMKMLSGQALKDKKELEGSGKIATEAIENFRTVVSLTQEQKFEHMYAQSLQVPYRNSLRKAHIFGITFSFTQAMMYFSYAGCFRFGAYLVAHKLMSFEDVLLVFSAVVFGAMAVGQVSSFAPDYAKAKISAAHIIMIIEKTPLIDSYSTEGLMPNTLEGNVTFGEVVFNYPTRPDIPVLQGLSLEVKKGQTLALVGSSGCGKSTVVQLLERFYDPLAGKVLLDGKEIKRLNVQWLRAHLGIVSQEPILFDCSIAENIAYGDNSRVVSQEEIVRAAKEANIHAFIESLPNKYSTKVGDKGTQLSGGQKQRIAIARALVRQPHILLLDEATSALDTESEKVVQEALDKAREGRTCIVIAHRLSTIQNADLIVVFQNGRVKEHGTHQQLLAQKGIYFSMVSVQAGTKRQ
# [4] = Disappearance of docetaxel in rat hepatic microsomes with LC478; type: in vitro ADME; conditions: rat hepatic microsomes, LC478 1, 5, 10 µM
# Experimental: (§3) The hepatic and intestinal microsomes were prepared based on a similar reported method.
# (§4) Adding 0.1 M phosphate buffer (pH 7.4) adjusted the total volume as 0.5 mL, and then the components were incubated at 37 °C using a thermomixer at 500 opm. After incubation of 15 and 30 min for the hepatic and intestinal microsomes, respectively, 1 mL of acetonitrile with 5 µg/mL of paclitaxel as an internal standard added to terminate the reaction.
# (§5) The unweighted kinetic data from rat hepatic and intestinal microsomes were fitted using a single-site Michaelis–Menten Equation V = Vmax × [S]/(Km + [S])(4) where [S] is the substrate concentration, Vmax is maximal velocity, and Km is substrate concentration for half-maximal velocity. The CLint was calculated by dividing the Vmax by the Km.
# [5] = Disappearance of docetaxel in rat intestinal microsomes with LC478; type: in vitro ADME; conditions: rat intestinal microsomes, LC478 1, 5, 10 µM
# Experimental: as §3, §4, §5
# [6] = Rat plasma protein binding of docetaxel by equilibrium dialysis; type: in vitro ADME; conditions: LC478 0.1 and 10 μg/mL
# Experimental: A 1 mL of the plasma was dialyzed against 1 mL of isotonic Sørensen phosphate buffer (pH 7.4) containing 3% dextran (w/v) in a dialysis cell (Spectrum Medical Industries, Laguna Hills, CA, USA) using a Spectra/Por 4 membrane (mol. wt. cutoff 12−14 KDa; Spectrum Medical Industries, USA).
# [7] = LC478 concentration in intestine after oral administration and [I]/IC50 prediction; type: in vivo; conditions: our unpublished data
# Experimental: Concentration of LC478 was determined using a HPLC-UV system. A 50 µL aliquot of acetonitrile was added to a 50 µL aliquot of biological sample. After vortex-mixing and centrifugation, the supernatant was evaporated (Dry Thermo Bath MG-2200, Eyela, Tokyo, Japan) under a soft stream of nitrogen gas at 50 °C. The residue was reconstituted in 60 µL mobile phase and a 50 µL aliquot of the supernatant was loaded onto a reverse-phase C18 column (SunFireTM; 150 mm. ℓ. × 4.6 mm. i.d.; particle size, 5 µm; Waters, Milford, MA, USA). […]. The retention time of LC478 was approximately 7.8 min, and the quantitation limit was 0.1 µg/mL.
# [8] = system: P-gp overexpressing MES-SA/DX5 sarcoma cells; conditions: cited from earlier work
compound,measurement,setting,value
COC(=O)c1cccc(NC(=O)COc2ccc(C34CC5CC(CC(C(=O)N6CCN(Cc7ccc(C(F)(F)F)cc7)CC6)(C5)C3)C4)cc2)c1 [LC478],viability at 24 h,[1],97 to 100%
same,toxicity to Caco-2 cells,[2],not toxic
same,IC50,[3],601 nM
same,effect on hepatic metabolism of docetaxel,[4],not inhibited
same,effect on intestinal metabolism of docetaxel,[5],not inhibited
same,effect on protein binding of docetaxel in rat plasma,[6],did not affect
same,LC478 concentration in the intestine,[7]; after oral administration of 30 mg/kg LC478,3.25 to 5.18 µM
same,LC478 concentration in the intestine,[7]; after oral administration of 100 mg/kg LC478,9.37 to 12.3 µM
same,effect on P-gp mediated efflux of paclitaxel,[8],reversed P-gp mediated efflux activity
same,intrinsic cytotoxicity,[8],without intrinsic cytotoxicity
